As for `CCOC(=O)Cc1c(C(=O)OCC)[nH]c(C)c1C(=O)OCc1ccccc1`, the melting point fell in the range of 110 to 112 °C.
Consider `ClCCCc1ccccc1`, for which the melting point was -27 °C.
Then `NC(=O)c1cnc2ccccc2n1`, with 195 °C; and `CCOC(=O)c1cnc(NCc2ccccc2)s1`, with 136 to 143 °C.
`CC12CCC(/C(=C/N(Cl)c3ccccc3)C1=O)C2(C)C` (configuration not stated) yielded a melting point of 102 to 103 °C.
The compound `N#Cc1ccncc1Br` gave a melting point of 93 °C.
Then `COc1ccc2c(c1O)-c1cccc3c1C(C2)N(C)CC3` (configuration not stated), with 124 °C; and `CCCN(CCC)C(=O)Cc1c(-c2ccc(Cl)cc2)nc2ccc(Cl)cn12`, with 140 °C; and `CCOC(=O)c1cc(C)n(CO)n1`, with 71 °C.
In turn, `Cn1c(Br)nc(C(=O)O)c1C(=O)O` registered a melting point of 160 °C.
The compound `CC(=O)Nc1ccc(C=Cc2ccccc2)c([N+](=O)[O-])c1` came in with a melting point of 192 °C.
`O=C(O)c1cc(Br)cc(Br)c1` had a melting point of 224 to 226 °C.
The compound `c1ccc(C2Nn3c(nnc3-c3cccnc3)S2)cc1` (configuration not stated) displayed a melting point of 220 °C.
The value for `CCOC(=O)CCCCCCCCCCCCC(=O)OCC` was 28 to 31 °C; that for `O=C(N[C@H]1CC=CC[C@H]1C(=O)O)OCc1ccccc1` (relative stereo) was 118 to 124 °C; that for `Cc1cc(O)c(C(C)C)cc1C1(c2cc(C(C)C)c(O)cc2C)OS(=O)(=O)c2ccccc21` was 221 °C.
Then `CCOC(=O)c1ccccc1`, with -34 °C; and `O=C(Nc1nnc(-c2ccc(Cl)cc2)o1)c1cccc(C(F)(F)F)c1`, with 215 to 217 °C; and `C1CSC1`, with -73.2 °C.
The value for `BrC(Br)C(Br)Br` was 0 °C; that for `O=[N+]([O-])c1cc2c3ccccc3ccc2c2ccccc12` was 210 to 213 °C; that for `CCOC(=O)c1c[nH]c(=O)nc1C(F)(F)F` was 165 °C.
`O=C(O)c1cc(O)cc(O)c1` displayed a melting point of 235 to 240 °C.
Regarding `NC(=NO)c1cnccc1C(F)(F)F`, the melting point is 183 to 185 °C.
Consider `CC(C)(O)C#CC#CC(C)(C)O`, for which the melting point was in the range of 132 to 134 °C.
In turn, `O=[N+]([O-])c1cc([N+](=O)[O-])c(/C=C/c2ccc3c(c2)OCO3)cc1/C=C\c1ccc2c(c1)OCO2` showed a melting point of 215 °C.
For `COc1ccccc1-c1nnc2n1NC(c1ccco1)S2` (configuration not stated), the melting point was found to be 226 °C.
Turning to `CCOc1cccc2ccccc12`, the melting point was found to be 5.5 °C.
`C[Si](C)(C)C#N` returned a melting point of 11 °C.
Consider `Nc1cc2ccccc2cc1O`, for which the melting point amounted to 235 °C.
The compound `CC(C)(C)OC(=O)N1C2CCC1CC(=O)C2` displayed a melting point of 58 to 59 °C.
The value for `CC(O)c1ccccc1C(F)(F)F` (configuration not stated) was 38 to 40 °C.
In the case of `CC(NC(=O)OC(C)(C)C)C(=O)N1CCCC1C(=O)OCc1ccccc1` (configuration not stated), the melting point was 68 to 70 °C.
For `CC1=NN(c2ccccc2)C(=O)C1Cc1ccc(O)cc1` (configuration not stated), the melting point stood at 210 °C.
In turn, `C1CCC2C(C1)CCC1C3CCCCC3CCC21` (configuration not stated) registered a melting point of 115 °C.
Regarding `Nc1cc(Cl)nc(Cl)c1`, the melting point amounted to 174 °C.
In turn, `O=S1(=O)OC(c2ccc(O)c(Cl)c2)(c2ccc(O)c(Cl)c2)c2ccccc21` yielded a melting point of 261 °C.
Then `CC(=O)c1nn(-c2ccccc2)c2cc3c(cc12)c(C(C)=O)nn3-c1ccccc1`, with 310 to 312 °C; and `Cc1ccc(F)cc1C(N)=O`, with 120 to 122 °C.
With `O=Cc1ccccc1N1CCOCC1`, the melting point was in the range of 45 to 46 °C.
`CCCCC(=O)OC1(C(=O)CO)CCC2C3CCC4=CC(=O)CCC4(C)C3C(O)CC21C` (configuration not stated) showed a melting point of 218 °C.
`N#Cc1ccc(N)c(N)c1` showed a melting point of 144 to 145 °C.
`OCc1sc(-c2ccccc2)nc1-c1ccccc1`: the melting point was 125 °C.
`CCC(Cl)C(C)Cl` (configuration not stated) registered a melting point of -77.3 °C.
With `O=C(O)C1(Cl)CC2C=CC1C2` (configuration not stated), the melting point was in the range of 139 to 141 °C.
Then `Cc1cc(-n2c(=O)[nH]c(=O)n(C)c2=O)ccc1Oc1ccc(SC(F)(F)F)cc1`, with 194 °C.
As for `CC12CCCCC1CCC1C2CCC2(C)C1CCC21OCCO1` (configuration not stated), the melting point turned out to be 143 °C.
In the case of `CC(C)(C)CC(C)(C)c1ccc(OCCO)cc1`, the melting point is -4 °C.
The value for `Brc1ccc(Oc2c(Br)cccc2Br)c(Br)c1` was 96 to 97 °C.
The value for `C=CCN1CCC23c4c5ccc(O)c4OC2C(O)C=CC3C1C5` (configuration not stated) was 208 °C; that for `Clc1c(Cl)c(Cl)c2ccccc2c1Cl` was 198 °C; that for `O=C1CCCc2c1nc(-c1ccccc1)n2O` was 247 to 257 °C.
`O=C(c1ccc2ccccc2c1)c1noc(-c2cccc3ccccc23)c1S(=O)(=O)c1ccccc1` registered a melting point of 115 °C.
Then `CCCCCCCCc1ccc(/N=N/c2ccc(OC(=O)CCCCCCC)cc2)cc1`, with 58 to 63 °C; and `CCOC(=O)c1nn(-c2ccc(C)cc2)c(C)c1C(=O)c1noc(-c2ccc(Cl)cc2)c1S(=O)(=O)c1ccccc1`, with 230 °C; and `O=C(c1ccco1)c1noc(-c2ccc([N+](=O)[O-])cc2)c1S(=O)(=O)c1ccccc1`, with 138 °C.
`CC(=O)N1N=C(c2ccc3ccccc3c2)C[C@@H]1c1ccc(Cl)c(Cl)c1` displayed a melting point of 242 °C.
Then `Cc1cc(C(=O)O)c2ccccc2n1`, with 240 to 242 °C; and `COC(=O)[C@H](CC(=O)O)Cc1ccc2ccccc2c1`, with 64.7 °C.
Then `Cc1cc(C)c2c(c1)OC(=O)C2`, with 105 °C.
For the compound `COC(=O)c1ccc2c(c1)CC1(CCC(c3ccc(C(C)(C)C)cc3)CC1)C2` (configuration not stated), the melting point amounted to 118 °C.
`O=S(=O)(Cl)c1ccc(-c2cnco2)s1` registered a melting point of 80 to 82 °C.
Compound `O=C(O)c1ccc(C(=O)O)o1` gave a melting point of 342 °C.
For the compound `CC1CC(=O)c2cc(F)ccc2O1` (configuration not stated), the melting point is 71 °C.
The compound `CC(C)c1cccc2ccccc12` came in with a melting point of -16 °C.
The value for `CC(C)(C)C(N)P(=O)(O)O` (configuration not stated) was 245 to 252 °C; that for `COc1cc([N+](=O)[O-])c(Cl)cc1N` was 131 to 133 °C.
In turn, `CC1(C)CCC2(C)CC=C3C(C)(CCC4C3(C)CCC3C(C)(C)C(O)CCC43C)C2C1` (configuration not stated) showed a melting point of 284 °C.
The value for `COC(=O)CCc1ccc2c(c1)NC(=O)CC2` was 143 °C; that for `C=C1C(=O)OC2C1CCC(C)C1C=CC(=O)C12C` (configuration not stated) was 146 °C; that for `CC(=O)OC1COC(C#N)C(OC(C)=O)C1OC(C)=O` (configuration not stated) was 132 to 135 °C.
For the compound `CN1CCc2cc3c(cc2C1)OCO3`, the melting point came to 66 °C.
As for `O=C1c2ccccc2NC1(OC1(c2ccccn2)Nc2ccccc2C1=O)c1ccccn1` (configuration not stated), the melting point came to 240 °C.
Then `CNCc1ccccc1`, with -24 °C; and `Nc1ccc(I)cc1C(=O)O`, with 219 to 221 °C; and `COC(=O)c1c(Cl)cccc1Cl`, with 28 °C.
Compound `Cc1ccc2cc(C)ccc2c1` showed a melting point of 112 °C.
Then `CC(C=O)=CN`, with 101 to 103 °C; and `CSc1c(C#N)c(N)nc2c(/N=N/c3cccc(C(F)(F)F)c3)c(N)nn12`, with 293 °C.
Compound `CCCCCCCCCCCC(=O)CC` registered a melting point of 34 °C.
In the case of `CSc1nc(N=Cc2ccc([N+](=O)[O-])cc2)nn1C`, the melting point lay within 194 to 196 °C.
In turn, `CCOC(=O)N1COCc2c1ccc1cc3ccc4c(c3nc21)COCN4C(=O)OCC` returned a melting point of 195 °C.
In turn, `NC1(C(=O)O)CC1` came in with a melting point of 257 °C.
Compound `CCOC(=O)c1cn[nH]c1` returned a melting point of 77 °C.
Then `Nc1ccc(N=Nc2ccccc2)cc1`, with 127 °C; and `O=C(O)C#Cc1cc(Br)cc(/C=C/C(=O)O)c1`, with 161 °C; and `CCOC(=O)c1cc2c(=O)oc3ccccc3c2nc1NC`, with 232 to 233 °C.
Then `C[C@]12CCC(=O)C[C@@H]1CC[C@@H]1[C@@H]2CC[C@]2(C)C(=O)C=C[C@@H]12`, with 172 to 173 °C.
Consider `COC(=O)c1c(C)cc(=O)oc1C`, for which the melting point is 66 to 70 °C.
In turn, `ClC=CBr` gave a melting point of -86.7 °C.
Compound `COc1ccc(Cn2cncn2)cc1` showed a melting point of 41.5 °C.
Regarding `OCc1csc(-c2cccc(Cl)c2)n1`, the melting point is 93 to 95 °C.
`N#CC1CN(Cc2ccccc2)CN(Cc2ccccc2)C1` showed a melting point of 80 °C.
The value for `CCCN(CCC)C(=O)COC(=O)c1ccccc1` was 20 °C.
With `CC(=O)c1ccc(Oc2ccccc2)cc1`, the melting point fell in the range of 52 to 54 °C.
Take `O=C(O)c1ccc(O)c(F)c1F`: the melting point was found to be 207 °C.
In turn, `Nc1ccc(C(=O)Oc2ccccc2)c(O)c1` came in with a melting point of 153 °C.
In turn, `CCCC1CC(C(=O)NC(C(C)O)C2OC(SC)C(O)C(O)C2O)N(C)C1` (configuration not stated) had a melting point of 295 °C.
Turning to `CC(C)C(C)C=CC(C)C1CCC2C3=CC=C4CC(O)CCC4(C)C3CCC21C` (configuration not stated), the melting point was found to be 170 °C.
As to `O=c1c(C2CC(c3ccc(-c4ccccc4)cc3)Cc3ccccc32)c(O)oc2ccccc12` (configuration not stated), the melting point came out at 213 °C.
The value for `O=c1cc(NC2CCCCC2)c2ccccc2o1` was 194 °C; that for `CCOC(=O)C1=C(C)NC(=O)NC1c1cccc([N+](=O)[O-])c1` (configuration not stated) was 228 °C; that for `NC(=S)CS(=O)(=O)c1cccs1` was 160 to 164 °C.
In the case of `Nc1c(F)cc(Br)cc1F`, the melting point fell in the range of 67 to 68 °C.
`Cc1c(C)c(C)c(C(=O)O)c(C)c1C` yielded a melting point of 210 °C.
In turn, `COc1ccc(Cl)nn1` displayed a melting point of 91 °C.
The compound `O=C(CI)NCCNc1cccc2c(S(=O)(=O)O)cccc12` yielded a melting point of 300 °C.

By melting point is commonly meant the temperature, or range, at which the solid turns liquid.
